Laboratory results published in PMC8307317, “Point-Substitution of Phenylalanine Residues of 26RFa Neuropeptide: A Structure-Activity Relationship Study” (Molecules, 2021).
Where two headings read alike, the source gives them in different places. Starred links: 1 amine or outer side, 2 acyl side, 3 side chain; linkers in the order of their positions; H or OH if unused. Positions of bridges follow the written chain, without caps; N, C: chain ends. Non-standard residues stand in square brackets, D forms with d. Residues, ends and D or L forms follow the SMILES beside them. No end group written: not given here. ξ: configuration not given here. *: point of attachment. Ahppa(3S,4S) = O=C(C[C@H](O)[C@H](Cc1ccccc1)N[*:1])[*:2]; Phe(4-NO2) = N[C@@H](Cc1ccc([N+](=O)[O-])cc1)C(=O)O; Phe(4-tBu) = CC(C)(C)c1ccc(C[C@H](N)C(=O)O)cc1; Oic = O=C(O)[C@@H]1C[C@@H]2CCCC[C@@H]2N1; Phe(4-Cl) = N[C@@H](Cc1ccc(Cl)cc1)C(=O)O; X7 = O=C(C(c1ccc(C(F)(F)F)cc1)N1CCNCC1)*; 2Nal = N[C@@H](Cc1ccc2ccccc2c1)C(=O)O; X3 = O=C(C(c1cccc(F)c1)N1CCNCC1)*; X6 = O=C(C(c1ccc(F)cc1)N1CCNCC1)*; NMeF = CN[C@@H](Cc1ccccc1)C(=O)O; Tic = O=C(O)[C@@H]1Cc2ccccc2CN1; dTic = O=C(O)[C@H]1Cc2ccccc2CN1; 2Thi = N[C@@H](Cc1cccs1)C(=O)O; X1 = O=C(C(c1cccnc1)N1CCNCC1)*; ξPhg = NC(C(=O)O)c1ccccc1

Target: T1, human QRFPR (hQRFPR) (Homo sapiens, UniProt Q96P65)
T1 construct: expressed in transfected cells; host or cells: CHO cells, stably transfected with hQRFPR (G418 selection) and Gα16 (hygromycin B selection)
T1 sequence (Q96P65 1-431): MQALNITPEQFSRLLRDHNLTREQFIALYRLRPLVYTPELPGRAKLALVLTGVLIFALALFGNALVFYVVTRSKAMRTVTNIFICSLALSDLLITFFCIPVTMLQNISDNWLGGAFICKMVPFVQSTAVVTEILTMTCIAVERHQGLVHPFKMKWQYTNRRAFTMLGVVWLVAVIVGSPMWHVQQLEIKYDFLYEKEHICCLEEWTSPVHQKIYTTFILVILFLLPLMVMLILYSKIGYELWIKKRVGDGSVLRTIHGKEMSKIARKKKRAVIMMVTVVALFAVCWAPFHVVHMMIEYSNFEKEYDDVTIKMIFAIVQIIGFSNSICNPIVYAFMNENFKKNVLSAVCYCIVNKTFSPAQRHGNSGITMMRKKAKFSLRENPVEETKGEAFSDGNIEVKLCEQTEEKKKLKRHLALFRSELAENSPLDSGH
Test: Calcium mobilization assay, agonist mode ([Ca2+]i in Gα16-hQRFPR-transfected CHO cells)
Type: cell-based
Procedure: Stably transfected hQRFPR CHO cells were obtained as previously described. The cells were maintained in F-12 nutrient mixture (Ham-F12) medium supplemented with 10% fetal bovine serum, 2 mM glutamine, and penicillin-streptomycin. Expression of Gα16 cells was maintained using selection antibiotic hygromycin B (200 µg/mL) and that of hQRFPR using geneticin G418 (500 µg/mL) (Life Technologies, Villebon-Sur-Yvette, France) in a humidified 5% CO2 atmosphere at 37 °C.
Changes in intracellular Ca^2+ concentrations induced by 26RFa(20–26) analogs in CHO-Gα16-hQRFPR-transfected cells were measured on a benchtop scanning fluorometer Flexstation III (Molecular Devices, Sunnyvale, CA, USA) as previously described. Briefly, 96-well assay black plates with clear bottoms (Corning international, Avon, France) were seeded at a density of 40,000 cells/well 24 h prior to assay. For profiling agonistic experiments, cells were loaded with 2 µM Fluo-4 acetoxymethyl ester (AM) (Invitrogen) for 1 h in the presence of 0.01% pluronic acid, washed thrice, and incubated for 30 min with standard HBSS containing 2.5 mM probenecid and 5 mM HEPES. Compounds to be tested were added at final concentrations ranging from 10^−11 to 10^−5 M in HBSS, and the fluorescence intensity was measured during 3 min. To evaluate the antagonistic potency of the test compounds, cells were incubated with each compound over 15 min after Fluo-4 AM loading. Then, during fluorescence recording, a pulse of 26RFa was administered at a final concentration of 10^−7 M. After subtraction of the mean fluorescence background, the baseline was normalized to 100%. Fluorescence peak values were determined for each concentration of compound.
Calcium experiments were performed in triplicate, and data, expressed as mean ± SEM of at least three distinct experiments, were analyzed with the Prism 8.0 software (Graphpad Software, San Diego, CA, USA). EC50 and the IC50 values were determined from concentration–response curves using a sigmoidal dose–response fit with variable slope from at least three independent determinations. Differences between 26RFa(20–26) and analog activities were analyzed by the Mann–Whitney test. p values < 0.05 were considered significant.

[1] = [Ca2+]i mobilization in Gα16-hQRFPR-transfected CHO cells, mean of at least three independent experiments performed in triplicate, read-out: EC50
[2] = single prototype curve, triplicate, basal [Ca2+]i mobilization, read-out: EC50 calculated from representative dose–response curves (Figure 3)

Row | EC50 [1] [µM] | EC50 ([Ca2+]i mobilization, N-methylated analogs, read-out: EC50) [µM] | Compound | EC50 [2] [µM]
1 | 2.71 | – | N=C(N)NCCC[C@H](NC(=O)[C@H](Cc1ccccc1)NC(=O)[C@H](CO)NC(=O)C(c1cccc(F)c1)N1CCNCC1)C(=O)N[C@@H](Cc1ccccc1)C(N)=O (some centres unmarked) [Compound 54, [Cmpi(3-FPhg)^22]26RFa(22–26)] (X3-SFRF-NH2) | –
2 | > 10 | – | N=C(N)NCCC[C@H](NC(=O)[C@H](Cc1ccccc1)NC(=O)[C@H](CO)NC(=O)C(c1ccc(C(F)(F)F)cc1)N1CCNCC1)C(=O)N[C@@H](Cc1ccccc1)C(N)=O (some centres unmarked) [Compound 58, [Cmpi(4-TfmPhg)^22]26RFa(22–26)] (X7-SFRF-NH2) | –
3 | 1.04 | – | CC(C)(C)c1ccc(C[C@H](NC(=O)[C@H](CCCNC(=N)N)NC(=O)[C@H](Cc2ccccc2)NC(=O)[C@H](CO)NC(=O)[C@H](Cc2ccccc2)NC(=O)CNC(=O)CN)C(N)=O)cc1 [Compound 13, [ptBuPhe^26]26RFa(20–26)] (H-GGFSFR[Phe(4-tBu)]-NH2) | 1.08
4 | 5.01 | – | N=C(N)NCCC[C@H](NC(=O)[C@H](Cc1ccccc1)NC(=O)[C@H](CO)NC(=O)C(NC(=O)CNC(=O)CN)c1ccccc1)C(=O)N[C@@H](Cc1ccccc1)C(N)=O (some centres unmarked) [Compound 20, [Phg^22]26RFa(20–26)] (H-GG[ξPhg]SFRF-NH2) | –
5 | > 10 | – | N=C(N)NCCC[C@H](NC(=O)[C@@H]1CSSC[C@H](NC(=O)CNC(=O)CN)C(=O)N[C@@H](CO)C(=O)N1)C(=O)N[C@@H](Cc1ccccc1)C(N)=O [Compound 46, [Cys^22,24]26RFa(20–26)] (H-GGCSCRF-NH2; disulfide 3-5) | –
6 | > 10 | – | N=C(N)NCCC[C@H](NC(=O)[C@H](Cc1ccccc1)NC(=O)[C@H](CO)NC(=O)[C@H](Cc1ccccc1)NC(=O)CNC(=O)CN)C(=O)N1Cc2ccccc2C[C@@H]1C(N)=O [Compound 42, [DTic^26]26RFa(20–26)] (H-GGFSFR[dTic]-NH2) | –
7 | 0.85 | – | N=C(N)NCCC[C@H](NC(=O)[C@H](Cc1ccc(Cl)cc1)NC(=O)[C@H](CO)NC(=O)[C@H](Cc1ccccc1)NC(=O)CNC(=O)CN)C(=O)N[C@@H](Cc1ccccc1)C(N)=O [Compound 15, [Pcp^24]26RFa(20–26)] (H-GGFS[Phe(4-Cl)]RF-NH2) | –
8 | 4.05 | – | N=C(N)NCCC[C@H](NC(=O)[C@H](Cc1ccccc1)NC(=O)[C@H](CO)NC(=O)C(c1ccc(F)cc1)N1CCNCC1)C(=O)N[C@@H](Cc1ccccc1)C(N)=O (some centres unmarked) [Compound 51, [Cmpi(4-FPhg)^22]26RFa(22–26)] (X6-SFRF-NH2) | –
9 | 3.56 | – | N=C(N)NCCC[C@H](NC(=O)[C@H](Cc1ccccc1)NC(=O)[C@H](CO)NC(=O)C(c1cccc(F)c1)N1CCNCC1)C(=O)N[C@@H](Cc1ccccc1)C(N)=O (some centres unmarked) [Compound 53, [Cmpi(3-FPhg)^22]26RFa(22–26)] (X3-SFRF-NH2) | –
10 | 1.66 | – | N=C(N)NCCC[C@H](NC(=O)[C@H](Cc1ccccc1)NC(=O)[C@H](CO)NC(=O)C(c1ccc(F)cc1)N1CCNCC1)C(=O)N[C@@H](Cc1ccccc1)C(N)=O (some centres unmarked) [Compound 52, [Cmpi(4-FPhg)^22]26RFa(22–26)] (X6-SFRF-NH2) | –
11 | > 10 | – | CC(C)(C)c1ccc(C[C@H](NC(=O)[C@H](CO)NC(=O)[C@H](Cc2ccccc2)NC(=O)CNC(=O)CN)C(=O)N[C@@H](CCCNC(=N)N)C(=O)N[C@@H](Cc2ccccc2)C(N)=O)cc1 [Compound 12, [ptBuPhe^24]26RFa(20–26)] (H-GGFS[Phe(4-tBu)]RF-NH2) | –
12 | > 10 | – | N=C(N)NCCC[C@H](NC(=O)C(NC(=O)[C@H](CO)NC(=O)[C@H](Cc1ccccc1)NC(=O)CNC(=O)CN)c1ccccc1)C(=O)N[C@@H](Cc1ccccc1)C(N)=O (some centres unmarked) [Compound 22, [Phg^24]26RFa(20–26)] (H-GGFS[ξPhg]RF-NH2) | –
13 | > 10 | – | N=C(N)NCCC[C@H](NC(=O)[C@H](Cc1ccc([N+](=O)[O-])cc1)NC(=O)[C@H](CO)NC(=O)[C@H](Cc1ccccc1)NC(=O)CNC(=O)CN)C(=O)N[C@@H](Cc1ccccc1)C(N)=O [Compound 18, [pNO2Phe^24]26RFa(20–26)] (H-GGFS[Phe(4-NO2)]RF-NH2) | –
14 | 15.1 | > 10 | CN(C(=O)CNC(=O)CN)[C@@H](Cc1ccccc1)C(=O)N[C@@H](CO)C(=O)N[C@@H](Cc1ccccc1)C(=O)N[C@@H](CCCNC(=N)N)C(=O)N[C@@H](Cc1ccccc1)C(N)=O [Compound 25, [NMePhe^22]26RFa(20–26)] (H-GG[NMeF]SFRF-NH2) | –
15 | 2.85 | – | N=C(N)NCCC[C@H](NC(=O)[C@H](Cc1ccccc1)NC(=O)[C@H](CO)NC(=O)C[C@H](O)[C@H](Cc1ccccc1)NC(=O)CNC(=O)CN)C(=O)N[C@@H](Cc1ccccc1)C(N)=O [Compound 34, [AHPPA^22]26RFa(20–26)] (H-GG[Ahppa(3S,4S)]SFRF-NH2) | –
16 | 7.7 | – | N=C(N)NCCC[C@H](NC(=O)[C@H](Cc1ccccc1)NC(=O)[C@H](CO)NC(=O)[C@H](Cc1ccccc1)NC(=O)CNC(=O)CN)C(=O)N1Cc2ccccc2C[C@H]1C(N)=O [Compound 30, [Tic^26]26RFa(20–26)] (H-GGFSFR[Tic]-NH2) | –
17 | > 10 | – | N=C(N)NCCC[C@H](NC(=O)[C@@H]1C[C@@H]2CCCC[C@@H]2N1C(=O)[C@H](CO)NC(=O)[C@H](Cc1ccccc1)NC(=O)CNC(=O)CN)C(=O)N[C@@H](Cc1ccccc1)C(N)=O [Compound 44, [Oic^24]26RFa(20–26)] (H-GGFS[Oic]RF-NH2) | –
18 | 3.79 | – | N=C(N)NCCC[C@H](NC(=O)[C@H](Cc1ccccc1)NC(=O)[C@H](CO)NC(=O)[C@H](Cc1ccccc1)NC(=O)CNC(=O)CN)C(=O)N[C@@H](Cc1ccc2ccccc2c1)C(N)=O [Compound 7, [2Nal^26]26RFa(20–26)] (H-GGFSFR[2Nal]-NH2) | –
19 | > 10 | – | N=C(N)NCCC[C@H](NC(=O)[C@@H]1Cc2ccccc2CN1C(=O)[C@H](CO)NC(=O)[C@H](Cc1ccccc1)NC(=O)CNC(=O)CN)C(=O)N[C@@H](Cc1ccccc1)C(N)=O [Compound 29, [Tic^24]26RFa(20–26)] (H-GGFS[Tic]RF-NH2) | –
20 | 6.16 | – | N=C(N)NCCC[C@H](NC(=O)[C@H](Cc1ccccc1)NC(=O)[C@H](CO)NC(=O)[C@@H](Cc1c[nH]c2ccccc12)NC(=O)CNC(=O)CN)C(=O)N[C@@H](Cc1ccccc1)C(N)=O [Compound 37, [DTrp^22]26RFa(20–26)] (H-GG[dW]SFRF-NH2) | –
21 | > 10 | – | N=C(N)NCCC[C@H](NC(=O)[C@H](Cc1ccccc1)NC(=O)[C@H](CO)NC(=O)[C@H](Cc1ccccc1)NC(=O)CNC(=O)CN)C(=O)NC(C(N)=O)c1ccccc1 (some centres unmarked) [Compound 23, [Phg^26]26RFa(20–26)] (H-GGFSFR[ξPhg]-NH2) | –
22 | > 10 | – | N=C(N)NCCC[C@@H]1NC(=O)[C@@H](NC(=O)[C@H](CO)NC(=O)[C@H](Cc2ccccc2)NC(=O)CNC(=O)CN)CSSC[C@@H](C(N)=O)NC1=O [Compound 48, [Cys^24,26]26RFa(20–26)] (H-GGFSCRC-NH2; disulfide 5-7) | –
23 | > 10 | – | N=C(N)NCCC[C@H](NC(=O)[C@H](Cc1ccccc1)NC(=O)[C@H](CO)NC(=O)[C@@H]1C[C@@H]2CCCC[C@@H]2N1C(=O)CNC(=O)CN)C(=O)N[C@@H](Cc1ccccc1)C(N)=O [Compound 43, [Oic^22]26RFa(20–26)] (H-GG[Oic]SFRF-NH2) | –
24 | > 10 | – | N=C(N)NCCC[C@H](NC(=O)[C@H](Cc1ccccc1)NC(=O)[C@H](CO)NC(=O)C(c1cccnc1)N1CCNCC1)C(=O)N[C@@H](Cc1ccccc1)C(N)=O (some centres unmarked) [Compound 64, [Cmpi(3-Pyg)^22]26RFa(22–26)] (X1-SFRF-NH2) | –
25 | 15.3 | – | N=C(N)NCCC[C@H](NC(=O)[C@H](Cc1ccc2ccccc2c1)NC(=O)[C@H](CO)NC(=O)[C@H](Cc1ccccc1)NC(=O)CNC(=O)CN)C(=O)N[C@@H](Cc1ccccc1)C(N)=O [Compound 6, [2Nal^24]26RFa(20–26)] (H-GGFS[2Nal]RF-NH2) | –
26 | 3.16 | – | N=C(N)NCCC[C@H](NC(=O)[C@H](Cc1ccccc1)NC(=O)[C@H](CO)NC(=O)[C@H](Cc1cccs1)NC(=O)CNC(=O)CN)C(=O)N[C@@H](Cc1ccccc1)C(N)=O [Compound 2, [Thi^22]26RFa(20–26)] (H-GG[2Thi]SFRF-NH2) | –
27 | – | – | GGFSFRF-NH2 [Compound 1, 26RFa(20–26)] | 1.07
